Results reported in ChEMBL document CHEMBL1201862, “PubChem BioAssay data set” (2004).
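Values below derive from 48-hour exposures of cells grown in 96-well plates, with endpoints linearly interpolated between the two concentrations bracketing the appropriate inhibition level. At the GI50, growth is halved.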 Calls of active or inactive are those of the source. Rule as the data show it: active = GI50 up to about 1.1 µM and inactive = higher.

Legend:
Experiment in all cases: DTP human tumour cell line panel, 48 h
TK-10 = test system: TK-10
U-251 = test system: U-251
MOLT-4 = test system: MOLT-4
CCRF-CEM = test system: CCRF-CEM
OVCAR-4 = test system: OVCAR-4
MCF7 = test system: MCF7
HOP-62 = test system: HOP-62
OVCAR-8 = test system: OVCAR-8
A498 = test system: A498
HT-29 = test system: HT-29
T47D = test system: T47D
MDA-MB-435 = test system: MDA-MB-435
MDA-MB-231 = test system: MDA-MB-231
HCT-116 = test system: HCT-116
KM12 = test system: KM12
SNB-19 = test system: SNB-19
786-0 = test system: 786-0
HOP-92 = test system: HOP-92
SN12C = test system: SN12C
SR = test system: SR

Row | Compound | GI50 (TK-10) | GI50 (U-251) | GI50 (MOLT-4) | GI50 (CCRF-CEM) | GI50 (OVCAR-4) | GI50 (MCF7) | GI50 (HOP-62) | GI50 (OVCAR-8) | GI50 (A498) | GI50 (HT-29) | GI50 (T47D) | GI50 (MDA-MB-435) | GI50 (MDA-MB-231) | GI50 (HCT-116) | GI50 (KM12) | GI50 (SNB-19) | GI50 (786-0) | GI50 (HOP-92) | GI50 (SN12C) | GI50 (SR)
1 | C=CCN(c1cc(O)c2c(c(C)cn2S(=O)(=O)c2ccccc2)c1[N+](=O)[O-])S(C)(=O)=O | > 100 µM (inactive) | > 100 µM (inactive) | 42.4 µM (inactive) | > 100 µM (inactive) | > 100 µM (inactive) | > 100 µM (inactive) | > 100 µM (inactive) | > 100 µM (inactive) | 74.1 µM (inactive) | > 100 µM (inactive) | 40.7 µM (inactive) | 29.2 µM (inactive) | > 100 µM (inactive) | 59.2 µM (inactive) | > 100 µM (inactive) | > 100 µM (inactive) | > 100 µM (inactive) | > 100 µM (inactive) | 78.9 µM (inactive) | –
2 | O=C(O)c1ccc(C=C2Sc3ccccc3S2)cc1 | 75.9 µM (inactive) | 48.2 µM (inactive) | 42.4 µM (inactive) | 55.5 µM (inactive) | 55.3 µM (inactive) | 35 µM (inactive) | 81.5 µM (inactive) | > 100 µM (inactive) | 14.5 µM (inactive) | 43.5 µM (inactive) | 45 µM (inactive) | 21.1 µM (inactive) | > 100 µM (inactive) | 48.1 µM (inactive) | 46.7 µM (inactive) | 73.8 µM (inactive) | 98.2 µM (inactive) | 64.4 µM (inactive) | 65.9 µM (inactive) | –
3 | O=C1NC(=O)/C(=C\c2ccncc2)N1 | > 100 µM (inactive) | > 100 µM (inactive) | > 100 µM (inactive) | – | > 100 µM (inactive) | > 100 µM (inactive) | > 100 µM (inactive) | > 100 µM (inactive) | – | > 100 µM (inactive) | > 100 µM (inactive) | > 100 µM (inactive) | > 100 µM (inactive) | > 100 µM (inactive) | > 100 µM (inactive) | > 100 µM (inactive) | > 100 µM (inactive) | > 100 µM (inactive) | > 100 µM (inactive) | –
4 | O=C(CCCn1ccnc1[N+](=O)[O-])NCCn1cnc([N+](=O)[O-])n1 | > 100 µM (inactive) | > 100 µM (inactive) | > 100 µM (inactive) | > 100 µM (inactive) | > 100 µM (inactive) | > 100 µM (inactive) | > 100 µM (inactive) | > 100 µM (inactive) | > 100 µM (inactive) | > 100 µM (inactive) | > 100 µM (inactive) | > 100 µM (inactive) | – | > 100 µM (inactive) | > 100 µM (inactive) | – | > 100 µM (inactive) | > 100 µM (inactive) | > 100 µM (inactive) | > 100 µM (inactive)
5 | CC(=O)Nc1c(S(=O)(=O)c2ccccc2)c(C)c(C)n1Cc1ccccc1 | > 100 µM (inactive) | > 100 µM (inactive) | > 100 µM (inactive) | > 100 µM (inactive) | > 100 µM (inactive) | – | – | > 100 µM (inactive) | > 100 µM (inactive) | > 100 µM (inactive) | > 10 µM (inactive) | > 100 µM (inactive) | > 100 µM (inactive) | > 100 µM (inactive) | 49.2 µM (inactive) | > 100 µM (inactive) | > 100 µM (inactive) | > 100 µM (inactive) | > 100 µM (inactive) | > 10 µM (inactive)
6 | Cc1cc(C)nc(NS(=O)(=O)c2ccc(NC(=O)NC(F)(F)F)cc2)n1 | > 100 µM (inactive) | > 100 µM (inactive) | > 100 µM (inactive) | > 100 µM (inactive) | – | – | – | > 100 µM (inactive) | > 100 µM (inactive) | > 100 µM (inactive) | > 100 µM (inactive) | > 100 µM (inactive) | – | > 100 µM (inactive) | – | > 100 µM (inactive) | > 100 µM (inactive) | – | > 100 µM (inactive) | > 100 µM (inactive)
7 | BrC(c1cccc2ccccc12)c1cccc2ccccc12 | 29 µM (inactive) | 16.9 µM (inactive) | > 100 µM (inactive) | – | 17 µM (inactive) | – | 14.1 µM (inactive) | 17.3 µM (inactive) | 17.6 µM (inactive) | 18.3 µM (inactive) | 29.4 µM (inactive) | 7.23 µM (inactive) | 13.8 µM (inactive) | 6.61 µM (inactive) | 15.5 µM (inactive) | 43.4 µM (inactive) | 13.7 µM (inactive) | 13.5 µM (inactive) | 14.3 µM (inactive) | > 100 µM (inactive)
8 | COc1ccc2c(c1)/C(=C\c1cccc(/C=C3/C(=O)Nc4ccc(OC)cc43)n1)C(=O)N2 | 1.73 µM (inactive) | 0.461 µM (active) | 0.261 µM (active) | 0.421 µM (active) | 1.02 µM (active) | 0.466 µM (active) | 1.55 µM (inactive) | 1.17 µM (inactive) | 2.94 µM (inactive) | – | 0.381 µM (active) | 1.17 µM (inactive) | – | 0.352 µM (active) | 1.78 µM (inactive) | 0.805 µM (active) | 0.964 µM (active) | 2.25 µM (inactive) | 0.757 µM (active) | –
9 | O=C(O)CCC(NC(=O)c1ccc(CNc2nc3cc(C(F)(F)F)ccc3nc2C(=O)O)cc1)C(=O)O (stereo not drawn) | > 100 µM (inactive) | > 100 µM (inactive) | > 100 µM (inactive) | > 100 µM (inactive) | > 100 µM (inactive) | – | > 100 µM (inactive) | > 100 µM (inactive) | > 100 µM (inactive) | > 100 µM (inactive) | > 100 µM (inactive) | > 100 µM (inactive) | – | > 100 µM (inactive) | > 100 µM (inactive) | > 100 µM (inactive) | > 100 µM (inactive) | > 100 µM (inactive) | – | > 100 µM (inactive)
10 | COc1cc2c(cc1OC)-c1[nH]c3ccc(C#N)cc3c1CC(=O)N2 | > 27 µM (inactive) | 2.61 µM (inactive) | 2.65 µM (inactive) | 1.56 µM (inactive) | > 30.1 µM (inactive) | 4.71 µM (inactive) | 3.86 µM (inactive) | 4.2 µM (inactive) | 7.74 µM (inactive) | 3.88 µM (inactive) | > 100 µM (inactive) | 8.79 µM (inactive) | > 100 µM (inactive) | – | 1.71 µM (inactive) | > 100 µM (inactive) | 3.68 µM (inactive) | > 100 µM (inactive) | 5.04 µM (inactive) | –
11 | N#CC(C#N)=C1CCCCc2ccc([N+](=O)[O-])cc21 | > 100 µM (inactive) | 76.2 µM (inactive) | 41.8 µM (inactive) | 40.5 µM (inactive) | > 100 µM (inactive) | 38.7 µM (inactive) | > 100 µM (inactive) | > 100 µM (inactive) | 78.3 µM (inactive) | 78.9 µM (inactive) | 46.3 µM (inactive) | > 100 µM (inactive) | > 100 µM (inactive) | 24.3 µM (inactive) | > 100 µM (inactive) | > 100 µM (inactive) | 17.4 µM (inactive) | > 100 µM (inactive) | 52.6 µM (inactive) | –
12 | CCCCCc1cc2cc3c(c(O)c2c(=O)[nH]1)C1(CCC3)C(=O)c2c(O)ccc(O)c2C1=O | 38.6 µM (inactive) | > 100 µM (inactive) | > 100 µM (inactive) | > 100 µM (inactive) | 88.5 µM (inactive) | > 100 µM (inactive) | 83.9 µM (inactive) | 59.3 µM (inactive) | > 100 µM (inactive) | > 100 µM (inactive) | – | > 100 µM (inactive) | > 100 µM (inactive) | > 100 µM (inactive) | > 100 µM (inactive) | > 100 µM (inactive) | > 100 µM (inactive) | > 100 µM (inactive) | > 100 µM (inactive) | > 100 µM (inactive)
13 | N#Cc1c(-c2ccccc2)c(/C=N/c2ccc(F)cc2)c(=O)n2c1[nH]c1ccccc12 | 20.8 µM (inactive) | 46.7 µM (inactive) | – | 15.6 µM (inactive) | 40.6 µM (inactive) | 36.6 µM (inactive) | 2.95 µM (inactive) | 34.2 µM (inactive) | 29.4 µM (inactive) | – | 27.7 µM (inactive) | 18.4 µM (inactive) | 51.6 µM (inactive) | 14.7 µM (inactive) | 29.6 µM (inactive) | 28.3 µM (inactive) | 24.7 µM (inactive) | – | 22.4 µM (inactive) | –
14 | Cc1c(NC(=O)c2cc([N+](=O)[O-])cc([N+](=O)[O-])c2)c(=O)n(-c2ccccc2)n1C | > 100 µM (inactive) | > 100 µM (inactive) | > 100 µM (inactive) | > 100 µM (inactive) | 43.9 µM (inactive) | 61.7 µM (inactive) | > 100 µM (inactive) | > 100 µM (inactive) | > 100 µM (inactive) | 33.2 µM (inactive) | – | > 100 µM (inactive) | > 100 µM (inactive) | > 100 µM (inactive) | 82.2 µM (inactive) | > 100 µM (inactive) | > 100 µM (inactive) | 76.9 µM (inactive) | > 100 µM (inactive) | 69.8 µM (inactive)
15 | O=c1[nH]nc(-c2ccccc2)c2[nH]c(-c3ccccc3)cc12 | – | – | 39 µM (inactive) | > 100 µM (inactive) | > 100 µM (inactive) | – | > 100 µM (inactive) | > 100 µM (inactive) | – | 12.2 µM (inactive) | 25.5 µM (inactive) | > 100 µM (inactive) | – | > 100 µM (inactive) | > 100 µM (inactive) | > 100 µM (inactive) | > 100 µM (inactive) | > 100 µM (inactive) | > 100 µM (inactive) | 38.8 µM (inactive)
